Source: US20230416232A1, “PYRIMIDINE COMPOUNDS, COMPOSITIONS, AND MEDICINAL APPLICATIONS THEREOF” (Blueprint Medicines Corporation, priority 2020, published 2023)
Like-named read-outs stand apart in the source and are kept apart here.

Tests used:
Format in all cases: cell-based
[1] = target: HER2 (A775_G776insYVMA) expressing Ba/F3 stable cell line (Homo sapiens, UniProt P04626, DUP772-775, cells depend on it); assay: Cellular proliferation (Alamar Blue) assay, HER2 (A775_G776insYVMA) Ba/F3; details: HER2 (A775_G776insYVMA) Ba/F3 cells; 72 hr; Alamar Blue; read-out: YVMA IC50
Sequence of HER2 (A775_G776insYVMA) expressing Ba/F3 stable cell line (P04626 with tags, fused parts or gaps DUP772-775): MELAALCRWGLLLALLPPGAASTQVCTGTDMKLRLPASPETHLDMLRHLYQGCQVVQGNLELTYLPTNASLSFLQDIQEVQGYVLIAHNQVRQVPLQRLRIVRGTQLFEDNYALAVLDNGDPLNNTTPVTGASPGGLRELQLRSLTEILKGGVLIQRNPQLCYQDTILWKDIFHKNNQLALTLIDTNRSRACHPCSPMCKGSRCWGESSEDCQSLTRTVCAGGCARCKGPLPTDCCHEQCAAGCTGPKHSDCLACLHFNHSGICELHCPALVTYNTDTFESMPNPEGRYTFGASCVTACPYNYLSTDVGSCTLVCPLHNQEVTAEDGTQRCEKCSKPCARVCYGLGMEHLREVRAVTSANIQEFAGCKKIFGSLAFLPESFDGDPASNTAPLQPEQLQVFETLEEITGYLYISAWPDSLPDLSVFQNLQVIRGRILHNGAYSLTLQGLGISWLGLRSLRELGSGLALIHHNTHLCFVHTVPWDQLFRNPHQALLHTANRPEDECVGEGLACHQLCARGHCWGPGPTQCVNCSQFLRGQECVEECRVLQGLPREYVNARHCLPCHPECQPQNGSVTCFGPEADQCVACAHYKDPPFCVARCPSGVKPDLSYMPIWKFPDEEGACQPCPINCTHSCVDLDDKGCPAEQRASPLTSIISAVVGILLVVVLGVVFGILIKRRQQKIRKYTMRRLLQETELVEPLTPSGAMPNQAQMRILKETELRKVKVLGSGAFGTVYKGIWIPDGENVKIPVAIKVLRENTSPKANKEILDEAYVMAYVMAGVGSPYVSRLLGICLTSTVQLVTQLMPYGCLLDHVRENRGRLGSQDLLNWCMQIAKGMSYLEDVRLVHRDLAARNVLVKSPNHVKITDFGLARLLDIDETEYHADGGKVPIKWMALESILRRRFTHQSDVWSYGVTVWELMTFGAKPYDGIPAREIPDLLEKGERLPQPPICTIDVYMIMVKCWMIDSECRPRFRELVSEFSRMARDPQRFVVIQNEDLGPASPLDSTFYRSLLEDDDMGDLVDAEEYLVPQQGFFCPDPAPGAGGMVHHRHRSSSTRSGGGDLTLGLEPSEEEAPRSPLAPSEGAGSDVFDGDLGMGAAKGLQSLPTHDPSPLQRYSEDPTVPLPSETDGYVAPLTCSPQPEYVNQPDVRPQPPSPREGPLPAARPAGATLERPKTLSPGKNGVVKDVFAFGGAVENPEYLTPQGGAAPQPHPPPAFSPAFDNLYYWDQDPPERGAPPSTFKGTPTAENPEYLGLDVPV
Method in brief: (§1)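 Seed A431 at 5000 and Ba/F3 at 15,000 cells/well in 10% FBS medium and incubate 16-18 h at 37 °C, 5% CO2. Add compound (final 10-0.0005 μM, 3-fold steps) or DMSO for 72 h. Add Alamar Blue and read after 3 h.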

A431 cells = assay: Cellular proliferation (Alamar Blue) assay, A431 cells; details: A431 cells, 72 hr, Alamar Blue, read-out: A431 IC50
Method in brief: as §1

[2] = target: EGFR (H773insNPH) expressing Ba/F3 stable cell line (Homo sapiens, UniProt P00533, DUP771-773, cells depend on it); assay: Cellular proliferation (Alamar Blue) assay, EGFR (H773insNPH) Ba/F3; details: 72 hr, read-out: NPH IC50
Sequence of EGFR (H773insNPH) expressing Ba/F3 stable cell line (P00533 with tags, fused parts or gaps DUP771-773): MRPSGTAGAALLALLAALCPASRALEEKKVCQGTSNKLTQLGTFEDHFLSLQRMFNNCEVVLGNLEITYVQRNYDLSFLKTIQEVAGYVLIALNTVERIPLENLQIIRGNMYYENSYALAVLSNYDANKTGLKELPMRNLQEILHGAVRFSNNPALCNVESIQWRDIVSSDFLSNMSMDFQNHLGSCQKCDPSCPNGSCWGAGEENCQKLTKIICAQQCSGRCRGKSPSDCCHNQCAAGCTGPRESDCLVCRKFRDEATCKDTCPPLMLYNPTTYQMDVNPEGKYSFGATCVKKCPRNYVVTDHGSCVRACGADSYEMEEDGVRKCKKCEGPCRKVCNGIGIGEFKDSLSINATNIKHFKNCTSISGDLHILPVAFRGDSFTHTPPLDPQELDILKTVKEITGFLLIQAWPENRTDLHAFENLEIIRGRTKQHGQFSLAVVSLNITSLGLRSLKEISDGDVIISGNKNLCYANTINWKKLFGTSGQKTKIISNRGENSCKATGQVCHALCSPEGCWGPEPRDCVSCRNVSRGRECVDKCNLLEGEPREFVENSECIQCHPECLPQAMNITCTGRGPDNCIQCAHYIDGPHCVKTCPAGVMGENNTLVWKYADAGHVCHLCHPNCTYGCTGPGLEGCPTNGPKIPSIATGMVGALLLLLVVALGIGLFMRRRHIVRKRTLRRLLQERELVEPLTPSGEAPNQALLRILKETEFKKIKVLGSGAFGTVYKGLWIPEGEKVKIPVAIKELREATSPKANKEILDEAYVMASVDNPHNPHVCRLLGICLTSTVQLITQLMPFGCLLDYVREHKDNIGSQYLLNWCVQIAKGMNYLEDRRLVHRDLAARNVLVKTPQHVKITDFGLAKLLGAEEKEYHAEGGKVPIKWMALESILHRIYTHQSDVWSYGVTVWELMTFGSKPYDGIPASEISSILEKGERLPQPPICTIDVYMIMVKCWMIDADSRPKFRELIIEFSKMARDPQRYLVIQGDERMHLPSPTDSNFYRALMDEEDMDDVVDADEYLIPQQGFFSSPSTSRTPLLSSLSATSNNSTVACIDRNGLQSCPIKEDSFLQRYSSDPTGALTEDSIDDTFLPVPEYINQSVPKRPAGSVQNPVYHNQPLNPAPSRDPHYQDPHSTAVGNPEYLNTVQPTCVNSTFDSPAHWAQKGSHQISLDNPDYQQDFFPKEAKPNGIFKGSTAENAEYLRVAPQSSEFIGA
Experimental: Cell line details: • 1. EGFR(D770_N771insSVD) expressing Ba/F3 stable cell line • 2. EGFR (A767_dupASV) expressing Ba/F3 stable cell line • 3. A431 cells • 4. EGFR (H773insNPH) expressing Ba/F3 stable cell line • 5. HER2 (A775_G776insYVMA) expressing Ba/F3 stable cell line
• 1. Seed cells at 5000 for A431 and 15,000 cells for Ba/F3 in 100 μL/well in complete media (for A431: DMEM with 10% FBS and for Ba/F3 cells: RPMI with 10% FBS) in 96-well tissue culture plate. Leave outer wells without cells for background measurements. Incubate at 37 degree Celsius in 5% CO2 humidified incubator for 16-18 hours. • 2. Add 0.025 ml of 5X concentration compound dilution or DMSO control. Final compound concentration range is 10-0.0005 μM prepared in 3-fold serial dilutions. Incubate for 72 hr at 37 degree Celsius in 5% CO2 humidified incubator. • 3. Add 0.0125 ml Alamar Blue™ reagent to each well with multi-channel pipette and tap gently on each side of the plate to mix. Incubate for 3 hours at 37 degree Celsius in 5% CO2 humidified incubator. • 4. […] Data analysis was performed using XLfit 5.5.0.5.

[3] = target: EGFR (A767_dupASV) expressing Ba/F3 stable cell line (Homo sapiens, UniProt P00533, DUP767-769, cells depend on it); assay: Cellular proliferation (Alamar Blue) assay, EGFR (A767_dupASV) Ba/F3; details: 72 hr, read-out: A767 IC50
Sequence of EGFR (A767_dupASV) expressing Ba/F3 stable cell line (P00533 with tags, fused parts or gaps DUP767-769): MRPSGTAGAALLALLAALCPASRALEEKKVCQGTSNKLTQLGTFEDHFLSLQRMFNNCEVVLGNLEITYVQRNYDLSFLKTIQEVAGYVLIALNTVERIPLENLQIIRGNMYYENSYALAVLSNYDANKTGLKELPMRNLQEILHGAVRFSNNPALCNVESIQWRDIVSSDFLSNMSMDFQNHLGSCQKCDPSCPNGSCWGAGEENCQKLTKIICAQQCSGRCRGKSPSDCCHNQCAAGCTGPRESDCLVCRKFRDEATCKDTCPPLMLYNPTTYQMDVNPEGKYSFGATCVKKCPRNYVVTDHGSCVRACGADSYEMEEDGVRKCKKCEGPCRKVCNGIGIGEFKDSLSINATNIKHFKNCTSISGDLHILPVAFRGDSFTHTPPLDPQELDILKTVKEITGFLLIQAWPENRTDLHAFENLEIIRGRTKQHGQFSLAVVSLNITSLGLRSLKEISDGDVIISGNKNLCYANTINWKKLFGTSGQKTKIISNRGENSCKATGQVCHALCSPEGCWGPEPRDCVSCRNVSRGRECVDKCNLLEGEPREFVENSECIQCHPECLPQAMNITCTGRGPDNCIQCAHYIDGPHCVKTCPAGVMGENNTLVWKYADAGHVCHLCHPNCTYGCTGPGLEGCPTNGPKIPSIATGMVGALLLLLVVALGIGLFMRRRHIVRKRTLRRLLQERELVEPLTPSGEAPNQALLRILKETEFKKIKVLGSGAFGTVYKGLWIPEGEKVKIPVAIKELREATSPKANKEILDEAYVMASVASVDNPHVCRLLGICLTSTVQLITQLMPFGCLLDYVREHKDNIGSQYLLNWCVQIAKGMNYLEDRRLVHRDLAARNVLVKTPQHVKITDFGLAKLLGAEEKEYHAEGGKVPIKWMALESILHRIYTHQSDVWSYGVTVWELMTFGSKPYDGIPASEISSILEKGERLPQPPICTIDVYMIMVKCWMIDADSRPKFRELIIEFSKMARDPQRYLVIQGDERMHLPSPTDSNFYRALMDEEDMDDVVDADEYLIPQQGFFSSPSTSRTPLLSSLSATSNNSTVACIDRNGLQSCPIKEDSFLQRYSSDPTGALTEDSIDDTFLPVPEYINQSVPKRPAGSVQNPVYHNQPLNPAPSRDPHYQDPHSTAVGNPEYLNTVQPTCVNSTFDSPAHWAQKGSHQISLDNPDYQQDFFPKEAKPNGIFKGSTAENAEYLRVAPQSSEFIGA
Method in brief: as §1

[4] = target: EGFR(D770_N771insSVD) expressing Ba/F3 stable cell line (Homo sapiens, UniProt P00533, DUP768-770, cells depend on it); assay: Cellular proliferation (Alamar Blue) assay, EGFR(D770_N771insSVD) Ba/F3; details: 72 hr, read-out: D770 IC50
Sequence of EGFR(D770_N771insSVD) expressing Ba/F3 stable cell line (P00533 with tags, fused parts or gaps DUP768-770): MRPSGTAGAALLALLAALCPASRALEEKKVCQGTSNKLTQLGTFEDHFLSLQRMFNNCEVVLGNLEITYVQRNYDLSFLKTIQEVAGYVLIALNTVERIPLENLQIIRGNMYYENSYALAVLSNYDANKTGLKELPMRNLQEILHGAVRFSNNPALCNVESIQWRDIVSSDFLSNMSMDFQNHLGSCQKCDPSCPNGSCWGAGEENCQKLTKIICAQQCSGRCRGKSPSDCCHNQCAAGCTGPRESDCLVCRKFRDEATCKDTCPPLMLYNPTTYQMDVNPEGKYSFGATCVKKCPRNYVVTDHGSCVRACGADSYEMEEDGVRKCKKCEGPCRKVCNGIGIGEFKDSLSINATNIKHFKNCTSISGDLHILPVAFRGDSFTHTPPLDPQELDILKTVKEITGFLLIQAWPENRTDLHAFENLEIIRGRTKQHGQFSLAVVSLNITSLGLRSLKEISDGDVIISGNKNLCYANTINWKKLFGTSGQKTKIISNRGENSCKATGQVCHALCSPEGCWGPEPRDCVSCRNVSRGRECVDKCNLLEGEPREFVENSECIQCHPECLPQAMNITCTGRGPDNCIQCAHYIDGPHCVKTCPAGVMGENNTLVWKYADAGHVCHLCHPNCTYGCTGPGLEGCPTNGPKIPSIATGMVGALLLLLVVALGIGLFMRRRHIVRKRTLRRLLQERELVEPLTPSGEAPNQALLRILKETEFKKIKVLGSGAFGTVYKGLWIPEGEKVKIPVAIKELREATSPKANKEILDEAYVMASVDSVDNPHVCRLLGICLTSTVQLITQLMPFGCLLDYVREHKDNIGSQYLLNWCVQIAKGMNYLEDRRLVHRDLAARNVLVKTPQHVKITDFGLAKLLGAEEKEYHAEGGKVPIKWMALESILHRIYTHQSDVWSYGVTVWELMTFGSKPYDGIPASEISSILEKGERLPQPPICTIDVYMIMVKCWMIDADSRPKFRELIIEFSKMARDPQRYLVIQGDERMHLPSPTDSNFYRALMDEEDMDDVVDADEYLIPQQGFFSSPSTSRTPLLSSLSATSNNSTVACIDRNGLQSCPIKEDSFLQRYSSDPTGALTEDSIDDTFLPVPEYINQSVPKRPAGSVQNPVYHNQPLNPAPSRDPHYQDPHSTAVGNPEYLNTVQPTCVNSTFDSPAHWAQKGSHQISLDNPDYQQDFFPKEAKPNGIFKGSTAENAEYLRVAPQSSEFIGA
Method in brief: as §1

Structure (SMILES) | GI50 [1] [nM] | IC50 (A431 cells; Homo sapiens, A-431, 72 h) [nM] | GI50 [2] [nM] | GI50 [3] [nM] | IC50 (A431 cells) [nM] | GI50 [4] [nM]
C=CC(=O)Nc1ccc(F)c(Nc2nc(Nc3cnn(C)c3)ncc2-c2cnc(Cl)c(C)c2)c1 [Compound 48, N-(3-((5-(6-chloro-5-methylpyridin-3-yl)-2-((1-methyl-1H-pyrazol-4-yl)amino)pyrimidin-4-yl)amino)-4-fluorophenyl)acrylamide] | 36 | 68 | 31 | – | – | –
C=CC(=O)Nc1cccc(Nc2nc(Nc3cnn(C)c3)ncc2-c2ccc(OC)c(F)c2)c1 [Compound 69, N-(3-((5-(3-fluoro-4-methoxyphenyl)-2-((1-methyl-1H-pyrazol-4-yl)amino)pyrimidin-4-yl)amino)phenyl)acrylamide] | 27 | 73 | 21 | 14 | – | –
C=CC(=O)Nc1ccc(F)c(Nc2nc(Nc3cnn(C4COC4)c3)ncc2-c2ccc(Br)c(F)c2)c1 [Compound 94, N-(3-((5-(4-bromo-3-fluorophenyl)-2-((1-(oxetan-3-yl)-1H-pyrazol-4-yl)amino)pyrimidin-4-yl)amino)-4-fluorophenyl)acrylamide] | 144 | 31 | 35 | 40 | – | –
CN(C)C/C=C/C(=O)Nc1ccc(F)c(Nc2nc(Nc3cnn(C)c3)ncc2-c2cc(F)cc(F)c2)c1 [Compound 161, (E)-N-(3-((5-(3,5-difluorophenyl)-2-((1-methyl-1H-pyrazol-4-yl)amino)pyrimidin-4-yl)amino)-4-fluorophenyl)-4-(dimethylamino)but-2-enamide] | 62 | – | – | 140 | 759 | 217
C=CC(=O)Nc1ccc(F)c(Nc2nc(Nc3cnn(C)c3)ncc2-c2ccc3c(c2)OCC3)c1 [Compound 162, N-(3-((5-(2,3-dihydrobenzofuran-6-yl)-2-((1-methyl-1H-pyrazol-4-yl)amino)pyrimidin-4-yl)amino)-4-fluorophenyl)acrylamide] | 428 | 84 | – | 116 | – | 38
C=CC(=O)Nc1cc(F)cc(Nc2nc(Nc3cnn(C)c3)ncc2-c2cc(F)c(Br)c(Cl)c2)c1 [Compound 163, N-(3-((5-(4-bromo-3-chloro-5-fluorophenyl)-2-((1-methyl-1H-pyrazol-4-yl)amino)pyrimidin-4-yl)amino)-5-fluorophenyl)acrylamide] | 104 | 128 | – | 22 | – | 26
C=CC(=O)Nc1cc(F)cc(Nc2nc(Nc3cnn(C)c3)ncc2-c2cc(F)c(C(F)(F)F)c(F)c2)c1 [Compound 164, N-(3-((5-(3,5-difluoro-4-(trifluoromethyl)phenyl)-2-((1-methyl-1H-pyrazol-4-yl)amino)pyrimidin-4-yl)amino)-5-fluorophenyl)acrylamide] | 157 | 103 | – | 18 | – | 22
[2H]C([2H])([2H])Oc1cc(F)cc(-c2cnc(Nc3cnn(C)c3)nc2Nc2cc(NC(=O)C=C)ccc2F)c1 [Compound 165, N-(4-fluoro-3-((5-(3-fluoro-5-(methoxy-d3)phenyl)-2-((1-methyl-1H-pyrazol-4-yl)amino)pyrimidin-4-yl)amino)phenyl)acrylamide] | 208 | 387 | – | 110 | – | 70
C=CC(=O)Nc1cc(F)c(F)c(Nc2nc(Nc3cnn(C)c3)ncc2-c2cc(F)cc(OC)c2)c1 [Compound 170, N-(3,4-difluoro-5-((5-(3-fluoro-5-methoxyphenyl)-2-((1-methyl-1H-pyrazol-4-yl)amino)pyrimidin-4-yl)amino)phenyl)acrylamide] | > 9040 | 5250 | – | > 10000 | – | > 10000
CN(C)C/C=C/C(=O)Nc1ccc(F)c(Nc2nc(Nc3cnn(C)c3)ncc2-c2cc(F)c(Br)c(F)c2)c1 [Compound 171, (E)-N-(3-((5-(4-bromo-3,5-difluorophenyl)-2-((1-methyl-1H-pyrazol-4-yl)amino)pyrimidin-4-yl)amino)-4-fluorophenyl)-4-(dimethylamino)but-2-enamide] | 113 | 57 | – | 99 | – | 79
C=CC(=O)Nc1cc(Br)cc(Nc2nc(Nc3cnn(C)c3)ncc2-c2cc(F)cc(C(F)F)c2)c1 [Compound 174, N-(3-bromo-5-((5-(3-(difluoromethyl)-5-fluorophenyl)-2-((1-methyl-1H-pyrazol-4-yl)amino)pyrimidin-4-yl)amino)phenyl)acrylamide] | 759 | 358 | – | 120 | – | 42
Cn1cc(Nc2ncc(-c3ccc(Br)c(F)c3)c(Nc3cc(NC(=O)/C=C/CF)ccc3F)n2)cn1 [Compound 175, (E)-N-(3-((5-(4-bromo-3-fluorophenyl)-2-((1-methyl-1H-pyrazol-4-yl)amino)pyrimidin-4-yl)amino)-4-fluorophenyl)-4-fluorobut-2-enamide] | 1620 | 347 | – | 224 | – | 136

The remaining lines, values ahead:

GI50 [1] [nM] | IC50 (A431 cells; Homo sapiens, A-431, 72 h) [nM] | GI50 [2] [nM] | GI50 [3] [nM] | IC50 (A431 cells) [nM] | GI50 [4] [nM] | Structure (SMILES)
107 | 140 | 59 | 26 | – | – | C=CC(=O)Nc1ccc(F)c(Nc2nc(Nc3cnn(C)c3)ncc2-c2ccc(OC(F)(F)F)c(F)c2)c1 [Compound 14, N-(4-fluoro-3-((5-(3-fluoro-4-(trifluoromethoxy)phenyl)-2-((1-methyl-1H-pyrazol-4-yl)amino)pyrimidin-4-yl)amino)phenyl)acrylamide]
84 | 303 | 50 | 39 | – | – | C=CC(=O)Nc1ccc(F)c(Nc2nc(Nc3cnn(C)c3)ncc2-c2cc(F)cc(Cl)c2)c1 [Compound 34, N-(3-((5-(3-chloro-5-fluorophenyl)-2-((1-methyl-1H-pyrazol-4-yl)amino)pyrimidin-4-yl)amino)-4-fluorophenyl)acrylamide]
83 | 18 | 116 | – | – | – | C=CC(=O)Nc1ccc(F)c(Nc2nc(Nc3cnn(C)c3)ncc2-c2ccc(Br)c(F)c2)c1 [Compound 87, N-(3-{[5-(4-bromo-3-fluorophenyl)-2-[(1-methyl-1H-pyrazol-4-yl)amino]pyrimidin-4-yl]amino}-4-fluorophenyl) prop-2-enamide]
555 | 613 | – | 299 | – | 75 | Cn1cc(Nc2ncc(-c3ccc(Br)c(F)c3)c(Nc3cc(NC(=O)/C=C/CN4CCC4)ccc3F)n2)cn1 [Compound 166, (E)-4-(azetidin-1-yl)-N-(3-((5-(4-bromo-3-fluorophenyl)-2-((1-methyl-1H-pyrazol-4-yl)amino)pyrimidin-4-yl)amino)-4-fluorophenyl)but-2-enamide]
142 | 512 | – | 234 | – | 84 | [2H]C([2H])([2H])n1cc(Nc2ncc(-c3cc(F)cc(F)c3)c(Nc3cc(NC(=O)/C=C/CN(C)C)ccc3F)n2)cn1 [Compound 167, (E)-N-(3-((5-(3,5-difluorophenyl)-2-((1-(methyl-d3)-1H-pyrazol-4-yl)amino)pyrimidin-4-yl)amino)-4-fluorophenyl)-4-(dimethylamino)but-2-enamide]
574 | 67 | – | 132 | – | 262 | C=CC(=O)Nc1ccc(F)c(Nc2nc(Nc3cnn(C)c3)ncc2-c2cc(F)cc(OC(F)F)c2)c1 [Compound 168, N-(3-((5-(3-(difluoromethoxy)-5-fluorophenyl)-2-((1-methyl-1H-pyrazol-4-yl)amino)pyrimidin-4-yl)amino)-4-fluorophenyl)acrylamide]
5980 | 585 | – | 967 | – | 843 | C=CC(=O)Nc1ccc(F)c(Nc2nc(Nc3cnn(C)c3)ncc2-c2cc(F)cc(OC(F)(F)F)c2)c1 [Compound 172, N-(4-fluoro-3-((5-(3-fluoro-5-(trifluoromethoxy)phenyl)-2-((1-methyl-1H-pyrazol-4-yl)amino)pyrimidin-4-yl)amino)phenyl)acrylamide]
1520 | 776 | – | 311 | – | 101 | C=CC(=O)Nc1cc(Br)cc(Nc2nc(Nc3cnn(C)c3)ncc2-c2cc(F)cc(Cl)c2)c1 [Compound 173, N-(3-bromo-5-((5-(3-chloro-5-fluorophenyl)-2-((1-methyl-1H-pyrazol-4-yl)amino)pyrimidin-4-yl)amino)phenyl)acrylamide]
